Patent US8388990B2, “Acidified chlorite compositions containing nitrogenous stabilizers and systems and methods related thereto” (Ecolab USA Inc., priority 2002, dated 2013)
Like-named read-outs stand apart in the source and are kept apart here.

How the values were obtained:
[1] = for Percent of Initial NaClO2 Remaining 2 Hours after Mixing / Percent of Initial NaClO2 Remaining 5 Hours after Mixing: buffer
[2] = Chlorine dioxide generation by UV/Visible spectrophotometry at 360 nm (Example 6); type: physicochemical; conditions: pH 2.5, no colorant
[3] = buffer, pH 2.5
[4] = Assay for measuring the Reduced Chlorite Demand Factor (Example 9); type: physicochemical; conditions: pH 2.5
[5] = Colorant effect on chlorite consumption (Example 2); type: physicochemical; conditions: disinfecting composition A of Example 1 with essentially equimolar colorant: 0.41% Blue #1, 0.26% Blue #2, 0.30% Yellow #5, 0.25% Yellow #6, 0.28% Red #40
Experimental: To determine how increasing levels of colorant causes a more rapid consumption of chlorite, the disinfecting composition A of Example 1 was prepared with either 0% (control), 0.03%, 0.15%, 0.30% or 0.60% by weight FD&C Yellow #5.
This experiment was then repeated using essentially equimolar concentrations of the following FD&C colorants: 0.41% Blue #1, 0.26% Blue #2, 0.30% Yellow #5, 0.25% Yellow #6, 0.28% Red #40 and no colorant (control).

[6] = Effect of nitrogenous stabilizer on chlorite consumption in a nil colorant composition (Example 7); type: physicochemical
[7] = level (Wt %): ethylenediamine 1.0, monoethanolamine 2.0, glycine 2.5
[8] = stabilizer at 1.33 M, five hours after mixing, versus control without stabilizer
[9] = composition with FD&C Yellow #5, pH 2.5, versus control

Aniline Sulfonic Acid
Percent of Initial NaClO2 After 2 Hours ([1]; pH 2.5): 90% | Percent of Initial NaClO2 After 5 hours ([1]; pH 2.5): 75% | effect on rate of sodium chlorite consumption / chlorite longevity (in words) ([1]; pH 2.5): promote greater chlorite longevity

NCCO [Monoethanolamine]
Level of ClO2 after 1 hour [2, 7]: 66 ppm | Percent of Initial Colorant Remaining 2 Hours after Mixing [3]: 49% | Percent of Initial NaClO2 Remaining 2 Hours after Mixing ([1]; pH 2.5): 86% | Percent of Initial NaClO2 Remaining 5 Hours after Mixing ([1]; pH 2.5): 45% | Reduced Chlorite Demand Factor [4, 8]: 4.1

CNS(=O)(=O)O [Methylsulfamic Acid]
effect on rate of sodium chlorite consumption / chlorite longevity (in words) [1, 9]: particularly effective

NCCS(=O)(=O)O [Taurine]
effect on rate of sodium chlorite consumption / chlorite longevity (in words) [1, 9]: solid chlorite longevity benefits

Nc1ccccc1 [Aniline]
effect on rate of sodium chlorite consumption / chlorite longevity (in words) [1, 9]: promote greater chlorite longevity

COc1cc(S(=O)(=O)[O-])c(C)cc1N=Nc1c(O)ccc2cc(S(=O)(=O)[O-])ccc12.[Na+].[Na+] [FD&C Red #40]
Percent of Initial NaClO2 Remaining 5 Hours after Mixing [5]: 60%

O=C1/C(=C2\Nc3ccc(S(=O)(=O)[O-])cc3C2=O)Nc2ccc(S(=O)(=O)[O-])cc21.[Na+].[Na+] [FD&C Blue #2]
Percent of Initial NaClO2 Remaining 5 Hours after Mixing [5]: 43%

NCS(=O)(=O)O [Aminomethanesulfonic Acid]
effect on rate of sodium chlorite consumption / chlorite longevity (in words) [1, 9]: solid chlorite longevity benefits

NCC(=O)O [Glycine]
Level of ClO2 after 1 hour [2, 7]: 105 ppm | Percent of Initial Colorant Remaining 2 Hours after Mixing [3]: 61% | Percent of Initial NaClO2 Remaining 2 Hours after Mixing ([1]; pH 2.5): 78% | Percent of Initial NaClO2 Remaining 5 Hours after Mixing ([1]; pH 2.5): 42% | Reduced Chlorite Demand Factor [4, 8]: 3.8

NS(=O)(=O)O [Sulfamic Acid]
Percent of Initial NaClO2 After 2 Hours ([6]; stabilizer level 0.25 Wt %): 97% | Percent of Initial NaClO2 After 5 hours ([6]; stabilizer level 0.25 Wt %): 94% | Percent of Initial NaClO2 After 2 Hours ([6]; stabilizer level 0.50 Wt %): 97% | Percent of Initial NaClO2 After 5 hours ([6]; stabilizer level 0.50 Wt %): 94% | Level of ClO2 after 1 hour ([2]; stabilizer level 0.25 Wt %): 17 ppm | Level of ClO2 after 1 hour ([2]; stabilizer level 0.50 Wt %): 17 ppm | Percent of Initial Colorant Remaining 2 Hours after Mixing [3]: 97% | Percent of Initial NaClO2 Remaining 2 Hours after Mixing ([1]; pH 2.5): 98% | Percent of Initial NaClO2 Remaining 5 Hours after Mixing ([1]; pH 2.5): 95% | effect on rate of sodium chlorite consumption / chlorite longevity (in words) ([1]; pH 2.5): significantly impact the rate of sodium chlorite consumption | Reduced Chlorite Demand Factor [4]: 4.5

OCCNCCO [Diethanolamine]
Reduced Chlorite Demand Factor [4, 8]: 0.9

Nc1ccc(S(N)(=O)=O)cc1 [Sulfanilamide]
effect on rate of sodium chlorite consumption / chlorite longevity (in words) [1, 9]: promote greater chlorite longevity | Reduced Chlorite Demand Factor ([4]; tested at 0.5% due to lower solubility, five hours after mixing): 5.6

O=C([O-])C1=NN(c2ccc(S(=O)(=O)[O-])cc2)C(=O)C1N=Nc1ccc(S(=O)(=O)[O-])cc1.[Na+].[Na+].[Na+] (stereo not shown) [FD&C Yellow #5]
Percent of Initial NaClO2 Remaining 5 Hours after Mixing [5]: 27%

NCCN [Ethylenediamine]
Level of ClO2 after 1 hour [2, 7]: 35 ppm | Percent of Initial Colorant Remaining 2 Hours after Mixing [3]: 91% | Percent of Initial NaClO2 Remaining 2 Hours after Mixing ([1]; pH 2.5): 92% | Percent of Initial NaClO2 Remaining 5 Hours after Mixing ([1]; pH 2.5): 80% | Reduced Chlorite Demand Factor [4, 8]: 4.0

O=S(=O)([O-])c1ccc(N=Nc2c(O)ccc3cc(S(=O)(=O)[O-])ccc23)cc1.[Na+].[Na+] [FD&C Yellow #6]
Percent of Initial NaClO2 Remaining 5 Hours after Mixing [5]: 18%

CCN(Cc1cccc(S(=O)(=O)[O-])c1)c1ccc(C(=C2C=CC(=[N+](CC)Cc3cccc(S(=O)(=O)[O-])c3)C=C2)c2ccccc2S(=O)(=O)[O-])cc1.[Na+].[Na+] [FD&C Blue #1]
Percent of Initial NaClO2 Remaining 5 Hours after Mixing [5]: <2%

NC(N)=O [Urea]
effect on rate of sodium chlorite consumption / chlorite longevity (in words) [1, 9]: provides longevity benefits | Reduced Chlorite Demand Factor [4, 8]: 4.3
